Data set [1] is described as follows: Test of the dissolution rate (USP 27 paddle apparatus). Conditions: for release [%]: 20 mg in 1000 ml 0.1% aqueous SDS, 37° C., 75 rpm paddle, mean of three. In kind it is physicochemical. As for the experimental part: The dissolution rate of the crystalline hydrates of the formula I was tested as follows: […]
The dissolution rate is measured in a standard apparatus (paddle) according to the US Pharmacopeia (USP 27) at 37° C. The stirrer speed is 75 rpm.
20 mg of the substance to be examined are added to 1000 ml of a 0.1% strength aqueous sodium dodecylsulfate (SDS) solution. After 15, 30, 45 and 60 minutes, samples of 20 ml are taken.
The portion dissolved is determined photometrically at 256 nm using a comparison solution. The measurement is carried out in 10 mm cuvettes using, for example, a Perkin Elmer Lambda 25 photometer. The samples are measured directly after removal of the samples. In each case, a mean is calculated from three determinations.
The comparison solution is prepared as follows: 2-3 mg of the batch used are dissolved in 2 ml of dimethylformamide in a measuring flask. The volume is then made up to 100.0 ml using 0.1% strength SDS solution.
The amorphous compound of the formula I used in Example 2 was compared to the crystalline compound of the formula I obtained in the same Example 2.

Another data set relates to Cholesterol absorption. Nature of the data set: Effect on cholesterol absorption + 3H-taurocholic acid elimination via fecal elimination. Conditions: dose which doubles fecal elimination of TCA or cholesterol vs control group, peroral, feces collected over 24 h. In kind it is in vivo, NMRI mice. On the procedure:
Effect on Cholesterol Absorption+^3H-Taurocholic Acid Elimination via Fecal Elimination in Mice, Rats or Hamsters
NMRI mice, Wistar rats or Golden Syrian hamsters (in groups of n=4-6) are kept with a standard diet (Altromin, Lage (Lippe), Germany) in metabolic cages. The afternoon prior to the administration of the radioactive tracers (^14C-cholesterol) the feed is withdrawn, and the animals are adapted to the cage wires.
In addition, 24 hours prior to the peroral administration of the test meal (^14C-cholesterol in Intralipid® 20, Pharmacia-Upjohn), the animals are labelled s.c. with ^3H-TCA (taurocholic acid) (for example 1 μCi/mouse to 5 μCi/rat).
Cholesterol absorption test: 0.25 ml/mouse Intralipid® 20 (Pharmacia-Upjohn) (spiked with 0.25 μCi ^14C-cholesterol in 0.1 mg of cholesterol) is administered perorally using a stomach tube. […]
The feces are collected over a period of 24 h: the fecal elimination of ^14C-cholesterol and 3H-taurocholic acid (TCA) is determined after 24 hours. […]
The total weight is determined, the sample is made up with water to a defined volume and then homogenized, an aliquot is evaporated to dryness and incinerated in an Oximate (Model 307, Packard, for the incineration of radioactively labelled samples): the amount of radioactive ^3H—H2O und ^14C—CO2 is extrapolated to the amount of ^3H-taurocholic acid or ^14C-cholesterol eliminated (dual isotope technique). […]

The nature of data set [2]: Water content on storage at 23° C./60% relative atmospheric humidity. The note with it: for Water content (%): previously dried to 0.8% water. The data set is classed as physicochemical. As for the experimental part: The hydrate obtained in Example 2 was dried under reduced pressure at 50° C. until a water content of 0.8% had been reached. The crystalline product was stored at 23° C./60% relative atmospheric humidity.

Setting [3] is: storage time 0.5 h at 23° C./60% relative humidity.
The mark [4] stands for this setting: storage time 2 h at 23° C./60% relative humidity.
Setting [5] is: storage time 4 h at 23° C./60% relative humidity.
Setting [6] is: storage time 6 h at 23° C./60% relative humidity.
[7] abbreviates: storage time 24 h at 23° C./60% relative humidity.

Data on three compounds can be found in US8003636B2, “Certain crystalline diphenylazetidinone hydrates, pharmaceutical compositions thereof and methods for their use” (Sanofi-Aventis Deutschland GmbH, priority 2007, dated 2011).

For `COc1ccc([C@@H]2[C@@H](CC[C@H](O)c3ccc(F)cc3)C(=O)N2c2ccc(CNC(=O)CCCCCCCCCCC(=O)NC[C@H](O)[C@@H](O)[C@H](O)[C@H](O)CO)cc2)cc1` [Amorphous compound of the formula II, reference compound], the “release [%]” value in data set [1] (15 min) worked out at 30.0%; in data set [1] (30 min), 41.3%; in data set [1] (45 min) it was 44.7%; in data set [1] (60 min), 46.2%.
As to `COc1ccc([C@@H]2[C@@H](CC[C@H](O)c3ccc(F)cc3)C(=O)N2c2ccc(CNC(=O)CCCCCCCCCCC(=O)NC[C@H](O)[C@@H](O)[C@H](O)[C@H](O)CO)cc2)cc1` [Example 2], the “ED200 value (fecal elimination [mg/mouse])” value in the data set on Cholesterol absorption amounted to 0.01 mg/mouse. In addition, the “release [%]” value in data set [1] (15 min, listed as Crystalline compound of the formula I) is 88.0%; in data set [1] (30 min, listed as Crystalline compound of the formula I), 90.0%; in data set [1] (45 min, listed as Crystalline compound of the formula I), 94.6%; in data set [1] (60 min, listed as Crystalline compound of the formula I) it was 98.7%. Further, in data set [1] (after 15 minutes), the “amount in solution relative to the amorphous active ingredient” value is “almost three times the amount of the amorphous active ingredient”.
As to `COc1ccc([C@@H]2[C@@H](CC[C@H](O)c3ccc(F)cc3)C(=O)N2c2ccc(CNC(=O)CCCCCCCCCCC(=O)NC[C@H](O)[C@@H](O)[C@H](O)[C@H](O)CO)cc2)cc1` [Example 6], the “n (hydrate water per formula I)” value in data set [2] (setting [3]) was determined as 0.5; in data set [2] (setting [4]), 1.09; in data set [2] (setting [5]), 1.14; in data set [2] (setting [6]), 1.09; in data set [2] (setting [7]), 1.14. In addition, the “Water content (%)” value is given as 1.1% in data set [2] (setting [3]); 2.4% in data set [2] (setting [4]); 2.5% in data set [2] (setting [5]); 2.4% in data set [2] (setting [6]); 2.5% in data set [2] (setting [7]).
